Reference: PMC7773174 (Tetrahedron letters, 2020)
Converted amounts (≈) assume the structure as drawn.

Assays:
[1] = system: Escherichia coli (MC4100); experiment: MIC, broth dilution antimicrobial susceptibility; type: cell-based; conditions: highest value of three independent trials
[2] = Partition coefficient by extraction with n-octanol and deionized water; type: physicochemical
[3] = system: CA-MRSA (Staphylococcus aureus USA 300-0114); experiment: MIC, broth dilution antimicrobial susceptibility; type: cell-based; conditions: S. aureus USA 300-0114; highest value of three independent trials
[4] = system: plasma binding proteins, namely retinoid binding proteins; experiment: Binding to plasma binding proteins; type: in vitro ADME; conditions: unpublished data
[5] = system: Enterococcus faecalis (OG1RF); experiment: MIC, broth dilution antimicrobial susceptibility; type: cell-based; conditions: highest value of three independent trials
MRSA = conditions: cited from earlier work
Solubility within serum = type: physicochemical; conditions: preliminary analysis
[6] = system: HA-MRSA (Staphylococcus aureus ATCC 33591); experiment: MIC, broth dilution antimicrobial susceptibility; type: cell-based; conditions: S. aureus ATCC 33591; highest value of three independent trials
[7] = system: MSSA (Staphylococcus aureus SH1000); experiment: MIC, broth dilution antimicrobial susceptibility; type: cell-based; conditions: S. aureus SH1000; highest value of three independent trials
[8] = system: Pseudomonas aeruginosa (PAO1); experiment: MIC, broth dilution antimicrobial susceptibility; type: cell-based; conditions: highest value of three independent trials
[9] = system: red blood cell (RBC), mechanically defibrillated sheep's blood; type: cell-based

Row | Compound | Minimum Inhibitory Concentration E. coli [1] | P (partition coefficient) ([2]; average over 3 independent trials) | logP ([2]; triplicate, ± standard deviation) | Minimum Inhibitory Concentration CA-MRSA [3] | binding to plasma binding proteins [4] | Minimum Inhibitory Concentration E. faecalis [5] | MIC (MRSA; ref [6]–[7]) | solubility within serum (Solubility within serum) | Minimum Inhibitory Concentration HA-MRSA [6] | Minimum Inhibitory Concentration MSSA [7] | Minimum Inhibitory Concentration P. aeruginosa [8] | Lysis20 [9] | minimum inhibitory concentration (MIC) (MRSA; ref [5])
1 | OCc1ccc2cc(-c3ccc(O)c(C45CC6CC(CC(C6)C4)C5)c3)ccc2c1 [Compound 2] | >250 µM | 9.16 | 0.93 ± 0.20 | 2 µM | high levels of binding | >250 µM | 2 mg/L (≈ 5.2 µM) | low solubility | 2 µM | 2 µM | >250 µM | 125 µM | 
2 | O=C(O)c1ccc2cc(-c3ccc(O)c(C45CC6CC(CC(C6)C4)C5)c3)ccc2c1 [Compound 1, CD437, reference compound] |  |  |  |  |  |  |  |  |  |  |  |  | 1 mg/L (≈ 2.51 µM)
3 | benzalkonium chloride [BAC, reference compound] | 32 µM |  |  | 4 µM |  | 125 µM |  |  | 4 µM | 2 µM | 125 µM | 32 µM | 
